Conditions: for log10 biotransformation half-life (days) / log10 BCF: fish

Compound: FCCC(F)(F)F
- boiling point: 29.4 °C

Compound: CCCCCCCCCCCCCCCc1cccc(O)c1O
- melting point: 59.5 °C

Compound: O=C1C(=O)c2cccc3cccc1c23
- melting point: 261 °C

Compound: CC(CCN(C)C)N(C)C (stereo unspecified)
- boiling point: 165 °C

Compound: CC(=O)Nc1ccc(C)cc1C
- melting point: 129 °C

Compound: CN1CCCc2ccccc21
- boiling point: 246 °C

Compound: c1ccc(-c2nc3ccccc3[nH]2)cc1
- melting point: 293 °C

Compound: c1ccc2c3c(ccc2c1)-c1cccc2cccc-3c12
- log10 biodegradation half-life (days): 2.48
- melting point: 166 °C

Compound: CCCCCCCC(=O)OCC(COC(=O)CCCCCCC)OC(=O)CCCCCCC
- melting point: 10 °C

Compound: CC1=CCc2ccccc21
- boiling point: 198 °C
- log10 biodegradation half-life (days): 0.477

Compound: CCOC(=O)CCCCCCCC(=O)OCC
- boiling point: 292 °C
- melting point: -18.5 °C

Compound: ClCc1cc(Cl)cc(Cl)c1
- melting point: 36 °C

Compound: Clc1ccc2c(c1)Oc1cc(Cl)c(Cl)cc1O2
- log10 Koa: 9.14
- log10 vapour pressure (mmHg): -7.05
- melting point: 162 °C

Compound: C=C1/C(=C/C=C2/CCC[C@]3(C)[C@@H]([C@H](C)CCCC(C)C)CC[C@@H]23)C[C@@H](O)C[C@@H]1O
- melting point: 136 °C

Compound: CCOc1nc(NC)nc(NC(=O)NS(=O)(=O)c2ccccc2C(=O)OC)n1
- log10 Koc (L/kg): 1.93
- melting point: 194 °C

Compound: CC(CC1CCCCC1)C1CCCCC1 (stereo unspecified)
- boiling point: 284 °C
- melting point: -22 °C

Compound: CCOc1ccc2c3c1O[C@H]1[C@@H](O)C=C[C@H]4[C@@H](C2)N(C)CC[C@@]341
- melting point: 200 °C

Compound: C#CC
- boiling point: -23.2 °C
- log10 vapour pressure (mmHg): 3.63
- melting point: -103 °C

Compound: CCCCCC(=O)OCCC
- boiling point: 187 °C
- melting point: -68.7 °C

Compound: CCOCc1ccccc1
- boiling point: 186 °C
- log10 vapour pressure (mmHg): -0.0339

Compound: CCC1(CC2(c3cccc(Cl)c3)CO2)C(=O)c2ccccc2C1=O (stereo unspecified)
- log10 vapour pressure (mmHg): -7.7
- melting point: 61 °C

Compound: CCSCC(C)C
- boiling point: 134 °C

Compound: CCCCC(CC)CNC1CCCCC1 (stereo unspecified)
- boiling point: 270 °C

Compound: CC1CCC(C)C1 (stereo unspecified)
- log10 biodegradation half-life (days): 0.602

Compound: Clc1cc(-c2c(Cl)c(Cl)c(Cl)c(Cl)c2Cl)cc(Cl)c1Cl
- log10 biotransformation half-life (days): 2.65

Compound: CCC(C)=NO[Si](C)(ON=C(C)CC)ON=C(C)CC
- ready biodegradability: not readily biodegradable

Compound: CC(=O)OCCCCl
- boiling point: 164 °C

Compound: c1ccc2c(c1)oc1ccccc12
- boiling point: 287 °C
- log10 Koc (L/kg): 3.91
- log10 vapour pressure (mmHg): -2.61
- melting point: 86.5 °C
- ready biodegradability: readily biodegradable
- log10 BCF: 3.18
- log10 biotransformation half-life (days): 1.35

Compound: CC(C)(C)OC(C)(C)C
- boiling point: 107 °C
- log10 vapour pressure (mmHg): 1.51

Compound: CN(C)c1cccc(C(=O)O)c1
- ready biodegradability: not readily biodegradable

Compound: CN(N)c1ccccc1
- boiling point: 228 °C

Compound: O=C(Cl)OCCOCCOC(=O)Cl
- boiling point: 229 °C
- log10 vapour pressure (mmHg): -2.83

Compound: Clc1cccc(-c2ccccc2Cl)c1
- log10 Henry constant (atm·m³/mol): -3.6

Compound: O=c1occcc1O
- melting point: 93.8 °C

Compound: O=[N+]([O-])c1ccc2c(c1)Cc1cc([N+](=O)[O-])ccc1-2
- melting point: 334 °C

Compound: CCCCOCCOC(=O)COc1ccc(Cl)cc1Cl
- log10 vapour pressure (mmHg): -5.35

Compound: CCCCCCCCOc1ccc(C(=O)c2ccccc2)c(O)c1
- melting point: 48.5 °C
- ready biodegradability: not readily biodegradable
- log10 BCF: 1.9

Compound: CN(C)[C@@H]1C(O)=C(C(N)=O)C(=O)[C@@]2(O)C(O)=C3C(=O)c4c(O)cccc4[C@@](C)(O)[C@H]3[C@H](O)[C@@H]12
- melting point: 184 °C

Compound: FC(F)(I)C(F)(F)C(F)(F)C(F)(F)I
- boiling point: 150 °C
- melting point: -9 °C

Compound: Fc1c(F)c(F)c(CBr)c(F)c1F
- boiling point: 174 °C

Compound: C[C@H]1C(=O)CC[C@@H]2[C@]1(C)CC[C@H]1[C@@]2(C)CC[C@@]2(C)[C@@H]3CC(C)(C)CC[C@]3(C)CC[C@]12C
- melting point: 263 °C

Compound: CCCCC1CO1 (stereo unspecified)
- melting point: 94 °C

Compound: O=C(c1ccccc1)c1ccccc1
- ready biodegradability: not readily biodegradable
- log10 BCF: 1.08

Compound: NC(=O)Nc1cccc(C(F)(F)F)c1
- log10 Koc (L/kg): 1.98

Compound: C[Si](C)(C)Cl
- boiling point: 60 °C
- log10 vapour pressure (mmHg): 2.37
- melting point: -40 °C

Compound: CC1(C)[C@H]2CC[C@]1(C)[C@H](O)C2
- boiling point: 210 °C

Compound: COC(=O)CCCCCCCCC(=O)OC
- melting point: 38 °C

Compound: CON(C(=O)c1cc(C)oc1C)C1CCCCC1
- melting point: 33 °C

Compound: CCC(O)CCl (stereo unspecified)
- boiling point: 141 °C

Compound: CCCC(C)c1ccccc1 (stereo unspecified)
- boiling point: 199 °C

Compound: COc1c(C)cccc1C
- boiling point: 182 °C

Compound: CCOP(=O)(NC(C)C)Oc1ccc(SC)c(C)c1 (stereo unspecified)
- log10 Koc (L/kg): 2.51
- log10 vapour pressure (mmHg): -6
- melting point: 49 °C

Compound: CC(C)[C@@H](N)C(=O)O
- melting point: 315 °C

Compound: Cc1ccc2nc3sc(=O)sc3nc2c1
- log10 Koc (L/kg): 3.36
- log10 vapour pressure (mmHg): -6.7
- melting point: 170 °C

Compound: CC(=O)N(CC(O)CO)c1c(I)c(C(=O)NCC(O)CO)c(I)c(C(=O)NCC(O)CO)c1I (stereo unspecified)
- melting point: 177 °C

Compound: c1ccc(O[Si](Oc2ccccc2)(Oc2ccccc2)Oc2ccccc2)cc1
- boiling point: 417 °C
- melting point: 49 °C

Compound: CC(C)(C)C=O
- boiling point: 77.5 °C
- melting point: 6 °C
- ready biodegradability: readily biodegradable

Compound: CCCCC(C(=O)O)C(=O)N(Nc1ccccc1)c1ccccc1 (stereo unspecified)
- melting point: 116 °C

Compound: OCc1cccc(O)c1
- melting point: 73 °C

Compound: CCCCCCCCCCCCCCCCCCCCCC(=O)O
- melting point: 81 °C

Compound: NNC(=O)c1ccccc1
- melting point: 115 °C

Compound: Cc1ccccc1OP(=O)(Oc1ccccc1C)Oc1ccccc1C
- ready biodegradability: readily biodegradable
- log10 biotransformation half-life (days): 0.5

Compound: OC[C@H]1O[C@H](O)[C@H](O)[C@@H](O)[C@@H]1O
- log10 vapour pressure (mmHg): -13.1

Compound: Cc1cc(C)c(NC(=O)CN(CC(=O)O)CC(=O)O)c(C)c1Br
- melting point: 199 °C

Compound: Clc1ccc(I)cc1
- boiling point: 227 °C
- log10 vapour pressure (mmHg): -1.23
- melting point: 57 °C

Compound: Cc1ccc(OC(=O)c2ccccc2)cc1
- boiling point: 316 °C
- melting point: 71.5 °C

Compound: FC(F)(F)Br
- boiling point: -57.8 °C
- log10 Henry constant (atm·m³/mol): -0.302
- log10 vapour pressure (mmHg): 4.09
- melting point: -172 °C

Compound: CC(C)=CCN=C(N)N
- melting point: 62.5 °C

Compound: C=CC(=O)OCCn1c(=O)n(CCOC(=O)C=C)c(=O)n(CCOC(=O)C=C)c1=O
- ready biodegradability: not readily biodegradable

Compound: Cc1cnc(C)c(C)c1
- boiling point: 184 °C

Compound: O=C[C@H](O)CO
- melting point: 145 °C

Compound: CCNc1nc(NC(C)C(C)C)nc(SC)n1 (stereo unspecified)
- log10 vapour pressure (mmHg): -5.85
- melting point: 65 °C

Compound: Cc1ccc(O)c(C)c1
- boiling point: 211 °C
- log10 Henry constant (atm·m³/mol): -6.02
- log10 vapour pressure (mmHg): -0.991
- melting point: 24.5 °C
- ready biodegradability: readily biodegradable

Compound: Oc1ccc(I)cc1
- melting point: 93.5 °C
- ready biodegradability: not readily biodegradable

Compound: ClC(Cl)(Cl)C1CO1 (stereo unspecified)
- boiling point: 149 °C

Compound: C#CC(=O)OCC
- boiling point: 120 °C

Compound: ClC1C(Br)C(Br)C(Br)C(Br)C1Br (stereo unspecified)
- ready biodegradability: not readily biodegradable
- log10 BCF: 2.41
- log10 biotransformation half-life (days): -0.31

Compound: C[C@H]1CC=CCC1
- boiling point: 103 °C
- melting point: -116 °C

Compound: C=COCCCCCC
- boiling point: 143 °C

Compound: CNC1(c2ccccc2Cl)CCCCC1=O (stereo unspecified)
- melting point: 92.5 °C

Compound: O=C1CCOCC1
- boiling point: 166 °C

Compound: CCCCC1C(=O)N(c2ccccc2)N(c2ccc(O)cc2)C1=O (stereo unspecified)
- melting point: 96 °C

Compound: ClCC(Cl)=C(Cl)Cl
- boiling point: 167 °C
- log10 vapour pressure (mmHg): 0.428

Compound: CCCCn1c(=O)c2c(ncn2C)n(C)c1=O
- melting point: 108 °C

Compound: CCCCCCl
- boiling point: 108 °C
- log10 Henry constant (atm·m³/mol): -1.62
- log10 vapour pressure (mmHg): 1.52
- melting point: -99 °C

Compound: CCCCF
- boiling point: 32.5 °C
- log10 vapour pressure (mmHg): 2.76
- melting point: -134 °C

Reference: the OPERA property sets (Mansouri et al. 2018)
